Test results from ChEMBL document CHEMBL1159027, “Microcolins A and B, new immunosuppressive peptides from the blue-green alga Lyngbya majuscula” (J Nat Prod, 1992).

Assays:
Lymphocyte = test: Immunosuppressive activity in mouse lymphocyte assessed as suppression of two-way mixed reaction; assay type: functional, cell-based
[1] = Toxicity in mouse lymphocytes; assay type: cell-based, Lymphocyte; settings: read-out: TC50 (the source's name)

SMILES	EC50 (Lymphocyte) [nM]	CC50 [1] [nM]
CCCC[C@@H](C)C[C@@H](C)C(=O)N(C)[C@@H](CC(C)C)C(=O)N[C@H](C(=O)N(C)[C@H](C(=O)N1C[C@@H](O)C[C@H]1C(=O)N1C(=O)C=C[C@@H]1C)C(C)C)[C@H](C)OC(C)=O [MICROCOLIN A]	1.5	22.6
CCCC[C@@H](C)C[C@@H](C)C(=O)N(C)[C@@H](CC(C)C)C(=O)N[C@H](C(=O)N(C)[C@H](C(=O)N1CCC[C@H]1C(=O)N1C(=O)C=C[C@@H]1C)C(C)C)[C@H](C)OC(C)=O [MICROCOLIN B]	42.7	191
